The values that follow come from publication PMC6193938, “Characterization of a novel AICARFT inhibitor which potently elevates ZMP and has anti-tumor activity in murine models” (Scientific Reports, 2018).

The structures appear in SMILES notation.

Holding throughout (test): CEREP protein kinase assay
What all share (format): biochemical

The target of one experiment is T1, IRAK4 (Homo sapiens, UniProt Q9NWZ3).
T1 construct: purchased CEREP Panlabs (Eurofins)
T1 sequence (Q9NWZ3 1-460): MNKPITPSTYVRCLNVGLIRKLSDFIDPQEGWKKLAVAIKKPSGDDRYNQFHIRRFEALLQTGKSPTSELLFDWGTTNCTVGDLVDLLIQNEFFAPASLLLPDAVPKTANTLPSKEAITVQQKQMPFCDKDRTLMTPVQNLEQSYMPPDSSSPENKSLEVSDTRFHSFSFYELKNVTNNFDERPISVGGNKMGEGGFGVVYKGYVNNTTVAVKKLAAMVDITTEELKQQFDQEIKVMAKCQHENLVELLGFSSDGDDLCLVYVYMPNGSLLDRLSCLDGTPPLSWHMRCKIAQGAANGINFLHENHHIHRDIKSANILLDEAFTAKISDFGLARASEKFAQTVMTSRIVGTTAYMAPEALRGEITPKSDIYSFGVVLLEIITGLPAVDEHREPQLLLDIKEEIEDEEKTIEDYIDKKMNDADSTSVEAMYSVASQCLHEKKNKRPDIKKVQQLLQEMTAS

For a further experiment, the target named is T2, TTK (Homo sapiens, UniProt P33981).
T2 construct: purchased CEREP Panlabs (Eurofins)
T2 sequence (P33981 1-857): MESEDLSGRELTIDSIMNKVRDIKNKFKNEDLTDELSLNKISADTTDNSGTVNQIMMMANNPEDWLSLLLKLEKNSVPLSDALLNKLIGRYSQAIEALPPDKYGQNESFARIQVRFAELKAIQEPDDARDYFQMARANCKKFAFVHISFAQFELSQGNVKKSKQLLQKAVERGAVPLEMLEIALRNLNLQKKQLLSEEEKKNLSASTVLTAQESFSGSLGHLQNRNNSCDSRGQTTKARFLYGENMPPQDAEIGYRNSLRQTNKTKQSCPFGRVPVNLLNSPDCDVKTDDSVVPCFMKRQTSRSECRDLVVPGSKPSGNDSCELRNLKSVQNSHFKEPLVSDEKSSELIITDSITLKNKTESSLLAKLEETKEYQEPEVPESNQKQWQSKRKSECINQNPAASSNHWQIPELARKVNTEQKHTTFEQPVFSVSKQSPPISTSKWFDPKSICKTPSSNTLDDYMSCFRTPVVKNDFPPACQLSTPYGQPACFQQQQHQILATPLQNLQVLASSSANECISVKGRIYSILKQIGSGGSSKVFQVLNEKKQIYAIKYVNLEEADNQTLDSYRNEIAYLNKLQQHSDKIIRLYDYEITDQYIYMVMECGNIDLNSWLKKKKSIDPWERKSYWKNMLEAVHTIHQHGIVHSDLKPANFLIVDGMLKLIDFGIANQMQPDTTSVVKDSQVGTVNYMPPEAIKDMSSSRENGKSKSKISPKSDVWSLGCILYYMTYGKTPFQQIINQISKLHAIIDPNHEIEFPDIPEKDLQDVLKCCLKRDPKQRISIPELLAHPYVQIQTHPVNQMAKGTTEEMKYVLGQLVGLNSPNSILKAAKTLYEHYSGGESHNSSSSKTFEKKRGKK

In the next experiment the target is T3, RON (Homo sapiens, UniProt Q04912).
T3 construct: purchased CEREP Panlabs (Eurofins)

Another experiment deals with T4, LCK (Homo sapiens, UniProt P06239).
T4 construct: purchased CEREP Panlabs (Eurofins)

For a further experiment, the target named is T5, AXL (Homo sapiens, UniProt P30530).
T5 construct: purchased CEREP Panlabs (Eurofins)
T5 sequence (P30530 26-894): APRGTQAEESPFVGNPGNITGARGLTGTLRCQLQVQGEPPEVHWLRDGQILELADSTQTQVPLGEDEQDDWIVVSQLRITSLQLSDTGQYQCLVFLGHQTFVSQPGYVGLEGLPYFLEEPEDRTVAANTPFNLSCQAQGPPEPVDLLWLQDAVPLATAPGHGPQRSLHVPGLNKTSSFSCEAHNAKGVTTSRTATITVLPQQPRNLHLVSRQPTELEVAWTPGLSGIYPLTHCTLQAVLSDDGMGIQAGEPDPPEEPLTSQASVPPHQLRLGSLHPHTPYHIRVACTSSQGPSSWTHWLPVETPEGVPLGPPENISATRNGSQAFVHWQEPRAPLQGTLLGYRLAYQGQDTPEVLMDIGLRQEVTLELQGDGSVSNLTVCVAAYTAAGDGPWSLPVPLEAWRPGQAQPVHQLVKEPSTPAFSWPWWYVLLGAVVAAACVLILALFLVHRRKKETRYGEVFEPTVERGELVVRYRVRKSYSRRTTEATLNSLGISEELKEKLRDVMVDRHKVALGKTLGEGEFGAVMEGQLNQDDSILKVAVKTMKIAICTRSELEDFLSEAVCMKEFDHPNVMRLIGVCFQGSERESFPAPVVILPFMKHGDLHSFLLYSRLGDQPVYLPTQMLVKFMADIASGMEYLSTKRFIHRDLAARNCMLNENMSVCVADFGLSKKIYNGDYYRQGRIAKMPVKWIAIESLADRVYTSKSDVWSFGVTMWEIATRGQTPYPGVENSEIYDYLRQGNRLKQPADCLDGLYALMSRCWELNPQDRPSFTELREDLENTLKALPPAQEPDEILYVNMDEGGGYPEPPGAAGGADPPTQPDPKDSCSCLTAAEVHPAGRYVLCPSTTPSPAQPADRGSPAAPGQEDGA

T3 sequence (Q04912 25-1400): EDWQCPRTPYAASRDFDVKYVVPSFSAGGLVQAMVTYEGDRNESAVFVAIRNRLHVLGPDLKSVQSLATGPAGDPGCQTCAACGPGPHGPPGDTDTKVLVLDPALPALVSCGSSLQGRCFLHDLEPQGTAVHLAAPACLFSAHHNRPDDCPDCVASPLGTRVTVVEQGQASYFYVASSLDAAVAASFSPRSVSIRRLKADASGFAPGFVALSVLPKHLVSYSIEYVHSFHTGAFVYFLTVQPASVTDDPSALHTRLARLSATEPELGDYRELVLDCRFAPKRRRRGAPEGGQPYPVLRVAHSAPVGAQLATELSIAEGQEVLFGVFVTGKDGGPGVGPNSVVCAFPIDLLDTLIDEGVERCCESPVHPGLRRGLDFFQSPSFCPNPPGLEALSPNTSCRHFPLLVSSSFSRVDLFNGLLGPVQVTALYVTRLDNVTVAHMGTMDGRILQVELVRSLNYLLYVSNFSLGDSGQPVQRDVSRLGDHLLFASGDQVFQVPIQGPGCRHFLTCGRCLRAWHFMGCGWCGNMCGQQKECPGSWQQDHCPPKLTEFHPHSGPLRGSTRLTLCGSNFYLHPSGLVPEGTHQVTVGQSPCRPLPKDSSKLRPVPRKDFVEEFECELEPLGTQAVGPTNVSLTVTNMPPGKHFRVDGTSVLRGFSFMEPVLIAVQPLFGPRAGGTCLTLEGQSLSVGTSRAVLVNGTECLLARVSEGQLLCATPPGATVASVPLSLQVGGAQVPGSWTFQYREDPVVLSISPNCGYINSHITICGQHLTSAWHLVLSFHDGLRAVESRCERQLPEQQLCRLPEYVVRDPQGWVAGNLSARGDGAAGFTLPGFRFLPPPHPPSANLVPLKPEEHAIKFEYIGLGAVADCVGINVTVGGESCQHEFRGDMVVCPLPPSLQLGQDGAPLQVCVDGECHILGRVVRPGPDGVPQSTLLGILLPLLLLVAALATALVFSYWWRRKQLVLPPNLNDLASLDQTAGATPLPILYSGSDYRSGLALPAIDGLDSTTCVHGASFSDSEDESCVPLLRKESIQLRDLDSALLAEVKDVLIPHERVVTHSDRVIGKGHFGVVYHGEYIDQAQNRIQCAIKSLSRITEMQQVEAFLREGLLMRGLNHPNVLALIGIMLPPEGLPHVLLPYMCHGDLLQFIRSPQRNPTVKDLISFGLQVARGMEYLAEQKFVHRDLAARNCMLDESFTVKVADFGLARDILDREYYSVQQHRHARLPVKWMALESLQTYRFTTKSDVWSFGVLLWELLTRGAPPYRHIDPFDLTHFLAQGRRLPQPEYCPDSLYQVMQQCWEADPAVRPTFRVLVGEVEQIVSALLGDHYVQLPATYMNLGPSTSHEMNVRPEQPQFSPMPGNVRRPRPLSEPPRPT
T4 sequence (P06239 whole entry): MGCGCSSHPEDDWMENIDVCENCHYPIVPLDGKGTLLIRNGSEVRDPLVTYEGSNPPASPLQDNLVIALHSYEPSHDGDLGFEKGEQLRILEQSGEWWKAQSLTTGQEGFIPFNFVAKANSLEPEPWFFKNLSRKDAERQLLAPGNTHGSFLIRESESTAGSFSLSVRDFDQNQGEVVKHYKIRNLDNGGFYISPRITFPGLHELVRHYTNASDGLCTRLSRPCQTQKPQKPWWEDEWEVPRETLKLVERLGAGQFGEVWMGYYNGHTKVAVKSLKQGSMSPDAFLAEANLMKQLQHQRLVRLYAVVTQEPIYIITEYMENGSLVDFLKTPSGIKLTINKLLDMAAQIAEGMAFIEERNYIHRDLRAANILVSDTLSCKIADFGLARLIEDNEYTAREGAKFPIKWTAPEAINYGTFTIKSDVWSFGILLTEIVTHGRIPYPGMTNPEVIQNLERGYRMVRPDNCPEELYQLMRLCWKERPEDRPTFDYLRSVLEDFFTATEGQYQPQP

What is called inhibition is the change of the read-out against control, counted positive when it falls. Consider `O=c1[nH]ccc2cc(F)c(NS(=O)(=O)c3ccc(N4CC[C@@H](O)C4)s3)cc12` [LSN3213128, N-(6-Fluoro-1-oxo-1,2-dihydroisoquinolin-7-yl)-5-[(3R)-3-hydroxypyrrolidin-1-yl]thiophene-2-sulfonamide], for which the inhibition at 0.2 µM on IRAK4 (@ 0.2 uM) is -4.69%; on TTK (@ 0.2 uM), -4.62%; against RON (@ 0.2 uM), -17.2%; against LCK (@ 0.2 uM), -24.6%; at AXL (@ 0.2 uM) it was -9.2%. The inhibition at 2 µM against IRAK4 (@ 2 uM) was 0.428%; at TTK (@ 2 uM), 6.44%; against RON (@ 2 uM) it was -11.8%; at LCK (@ 2 uM), -4.9%; against AXL (@ 2 uM) it was 2.93%. Besides, the inhibition at 20 µM is -0.827% at IRAK4 (@ 20 uM); 18.6% on TTK (@ 20 uM); 33.9% at RON (@ 20 uM); 2.61% on LCK (@ 20 uM); 22.2% on AXL (@ 20 uM).
